Reference: a melting point compilation (Tetko et al.; mined from patent text by program, amines drawn as free bases though some values may be those of a salt)
Non-standard residues stand in square brackets, D forms with d. Residues, ends and D or L forms follow the SMILES beside them. ξ: configuration not given here. *: point of attachment. Boc = CC(C)(C)OC(=O)*; Dha = C=C(N)C(=O)O; ξP = O=C(O)C1CCCN1

melting point [°C]	SMILES
107 to 108	COc1ccc(OCCCN2CCC(C(O)(c3ccc(F)cc3)c3ccc(F)cc3)CC2)cc1
78 to 82	O=C1N(CC2CCCO2)c2cccc(Cl)c2C12COc1cc3c(cc12)CCO3 (centres undefined)
138 to 140	C=CCC1COC(CC)(CC(=O)O)c2[nH]c3c(C)c(F)ccc3c21 (centres undefined)
251 to 252	Cn1cc(-c2ccc3nc(NC(=O)c4ccc(C(C)(C)C)nc4)cn3n2)cn1
218	O=C1CCc2ccc(OCCCCOc3ccc4c(c3)NC(=O)CC4)cc2N1
222 to 224	c1ccc(COc2ccc(-c3ccc(OCc4ccccc4)cc3)cc2)cc1
188 to 189	COc1cccc(C(=O)Nc2ccc(S(N)(=O)=O)cc2)c1SSc1c(OC)cccc1C(=O)Nc1ccc(S(N)(=O)=O)cc1
94 to 96	CC(C)Oc1ccc(-c2ccc(C#N)cc2)cc1C=O
154 to 156	C=C(NC(=O)C1CCCN1C(=O)OC(C)(C)C)C(=O)O (centres undefined) (Boc-[ξP]-[Dha]-OH)
253	Cc1cc(-c2cnn3c(C(F)(F)F)cc(-c4ccc(C(F)(F)F)c(C)c4)nc23)cc(C)n1
209 to 211	CS(=O)(=O)c1ccc(-c2cnn(-c3cc(F)cc(F)c3)c(=O)c2Oc2ccc(F)cc2)cc1
236 to 238	CC(=O)Nc1cc(=O)c2cc(Oc3ccccc3)c(NS(C)(=O)=O)cc2o1
154 to 155	CN1CCCCC1=NC(=O)Nc1ccc(C(F)(F)F)cc1
65 to 66	CC(C)c1nc(CN(C(=O)N[C@H](C(=O)N[C@@H](Cc2ccccc2)C[C@H](O)[C@H](Cc2ccccc2)NC(=O)OCc2cncs2)C(C)C)C2CC2)cs1
> 280	CC(C)(C)c1cc(-n2ccc(=O)[nH]c2=O)cc(Br)c1Cl
81 to 83	CC(C)(C)OC(=O)NC[C@H]1CC[C@H](CI)CC1
77 to 78	CCOC(=O)c1[nH]c2ccc(F)cc2c1N
94 to 96.5	O=C(CCl)N(c1ccccc1)c1cccc(Cl)c1
97 to 100	COCCOc1ccc(CCCNS(=O)(=O)Cc2ccccc2)c(Oc2ncc(C(F)(F)F)cc2Cl)c1
194 to 196	CC1=C(C(=O)OC(C)(C)C)C(c2ccccc2Cl)C(C(=O)OC(C)(C)C)=C(C)N1
63 to 64	CC(C#N)=Cc1ccc(C=O)cc1
124 to 125	CCOC(=O)c1cc2cccc(N(CC)S(=O)(=O)c3cccs3)c2[nH]1
219 to 222	CC(=O)Nc1ccc2sc3ccc(Br)cc3c(=O)c2c1
199 to 201	COC(=O)c1cn2c(=O)c(Br)c(C)nc2s1

melting point [°C]	SMILES
216 to 220	O=C1Nc2ccccc2C12COc1cc3c(cc12)CCCO3 (centres undefined)
113 to 116	Cc1cc(C(=O)c2ccc(Cl)cc2)ccc1N
124 to 128	Cc1ccc2[nH]c(C)c(-c3ccc(F)cc3)c2c1
85 to 90	CS(=O)(=O)c1ccc(-c2cnn(-c3cccc(Cl)c3)c(=O)c2C2CCCCC2)cc1
143 to 145	Cc1cc(Br)c2c(c1)N(S(=O)(=O)c1ccc(Cl)cc1)CCO2
116 to 118	O=CN(O)C(CS(=O)(=O)c1ccc(-c2ccc(OC(F)(F)F)cc2)cc1)c1ccccn1 (centres undefined)
172	Nc1ccccc1C(=O)NCCN1CCC(Nc2nc3ccccc3n2Cc2ccc(F)cc2)CC1
99 to 107	CC(C)C(C)(C#N)N1C(=O)c2ccc3ccsc3c2C1=O (centres undefined)
> 300	O=C1NC(=O)c2c1c1c3ccc(F)cc3[nH]c1c1c2c2ccc(F)cc2n1C1OC2COC(C2O)C1O (centres undefined)
151 to 152	COc1ccc(OCc2ccccc2)c2c1CN(Nc1ccncc1)CC2
97 to 98	COc1ccc2c(c1)SSSSS2
168 to 172	O=C(O)c1ccc(CC(=O)c2ccccc2Cl)cc1
232	CCCC(=O)Nc1n[nH]c2cc(-c3ccc(F)cc3)ccc12
210 to 212	CNC(=O)CNc1cccc2c1C(=O)N(C1CCC(=O)NC1=O)C2=O (centres undefined)
174 to 175	Cn1c(Cl)c(C(=O)C(=O)N2CCCC2)c2ccc(Cl)cc21
155 to 157	CC(CCCN(C)c1ccccc1)NCC(O)c1ccc(O)c(C(N)=O)c1 (centres undefined)
60 to 62	O=C(Cl)c1cc(Cl)c(Cl)c(Cl)n1
96 to 99	CCCCCCCCOC(=O)Nc1c2c(nc3ccccc13)CCCC2
115 to 116	OCc1cn(Cc2cc(OCc3ccccc3)cc(OCc3ccccc3)c2)cc1-c1ccccc1
102 to 103	CC(Sc1cc2ccccc2[nH]1)(C(=O)OCc1ccccc1)c1ccccc1 (centres undefined)
156 to 157	COc1ccc2c(c1)Sc1cc([N+](=O)[O-])ccc1N2C(C)=O
170 to 172	CCCc1c(COCCOc2ccc(-c3nnn[nH]3)cc2)ccc(C(C)=O)c1O
54 to 55	CCC(=O)C(CCCCCCCOc1ccc(OCc2ccccc2)cc1)C(=O)CC
177 to 178	CNC(=O)NC(=O)/C(=C/C(C)C)c1ccc(Cl)c(Cl)c1

melting point [°C]	SMILES
110 to 111	FC(F)(F)c1ccc(-c2cc(C(F)(F)F)n3nccc3n2)cc1
30 to 40	CCCc1nc(Cl)cc(NC)n1
203 to 205	N#CNC(=NCCN)NC1CCCC(c2csc(NC(=N)N)n2)C1 (centres undefined)
143 to 145	CCOC(=O)c1ccc(-c2nc(COc3ccc(COc4nn(-c5ccccc5)cc4C=O)cc3OC)c(C)o2)o1
219 to 220	COc1cc(OC)nc(NC(=O)NS(=O)(=O)c2ccccc2CN2CN=CN2)n1
137 to 138	O=C(/C=C/c1cccc(Cl)c1)N1CCCC1
131 to 133	CC(c1ccccc1N1CCCCC1)C(C(N)=O)c1ccc(C(=O)N2CCCCC2)cc1 (centres undefined)
222	COc1ccc(NC(=O)c2c(C)nc3ccccc3c2O)cc1
92 to 93	Cc1ccc(C)c(S(=O)(=O)Nc2onc(C)c2Cl)c1
> 260	COc1ccc2[nH]cc(-c3cc4c(OC)ncnc4[nH]3)c2c1
205 to 208	CCOc1cc2cc(C(=O)OC)c(C(=O)OC)c(-c3ccnc(Cl)c3)c2cc1OC
94 to 95	CCOC(=O)CCc1cccc(CNC(=O)C[C@H]2O[C@H](c3cccc(OC)c3OC)c3cc(Cl)ccc3N(CC(C)(C)CO)C2=O)c1
214	CS(=O)c1ccc(-c2nn(Cc3ccc(Cl)cc3Cl)c(=O)cc2-c2ccc(F)cc2)cc1 (centres undefined)
114 to 116	CCOC(=O)c1c2ccc(Cl)cc2c(-c2ccccc2)n1CCO
126 to 128	[N-]=[N+]=Nc1nc(C(F)(F)F)nc(-c2ccccc2)c1-c1ccccc1
105 to 106	CC(C(=O)O)c1ccc(Oc2ccc(F)cc2F)cc1 (centres undefined)
198 to 199	COc1ccc(C2=NN(c3ccc(C(=O)O)cc3)C(=O)[C@H]3CC=CC[C@@H]23)cc1OC (relative stereo)
144	Nc1cc(N)c(SCCO)cc1SCCO
89	CC(=O)C=CSc1ncc(Cl)cn1
77 to 78	CCCCCCC(=O)c1ccc2cc(OC)c(OC)cc2c1
282 to 286	O=C(O)c1cn2c3c(cc(Cl)cc3c1=O)CCC2
217 to 218	Cc1ccc(-c2ccccc2C(=O)N(C)NC(N)=O)cc1
152	CCC(=O)Nc1cccc(C)c1C(=O)O
123 to 124	CCN1CN(c2cccc(F)c2)c2ncccc2C1=O

melting point [°C]	SMILES
175 to 176	CC(C)(N)C(O)c1cc(C(F)(F)F)nc2c(C(F)(F)F)cccc12 (centres undefined)
348 to 350	COc1ccc2[nH]c3cc(-c4ccccc4C#N)c4c(c3c2c1)C(=O)NC4=O
112 to 115	COC(=O)C=CCCC(C)C1CCC2C3CCC4CC(OC=O)CCC4(C)C3CC(OC=O)C12C (centres undefined)
85 to 86	O=C(NCCc1ccc(F)cc1)c1ccc(S(=O)(=O)Nc2ccccc2C(=O)O)cc1
149 to 151	Cc1ccccc1-c1ccc(C(=O)N2Cc3ccc(C(=O)NCc4ccc5c(c4)OCO5)n3Cc3ccccc32)cc1C
311 to 313	Cn1c(=O)[nH]c2nc3ccc(OCCCCC(=O)O)cc3cc21
95 to 102	C(=C\c1cc(/C=C/c2ccc3[nH]ccc3c2)n[nH]1)/c1ccc(OCc2ccccn2)cc1
90 to 92	CCc1ccc(CC(C)(C)NC(C)=O)cc1
255	O=C(c1ccc2c(c1)OCCO2)c1ccc2[nH]c(=O)nc(-c3cccc(Cl)c3)c2c1
161 to 162	ON=Cc1c(O)ccc2c1OCO2
182 to 186	COc1ccc(-n2c(N)cc(=O)nc2SC)cc1
100 to 103	O=C(c1ccc(OCCN2CCCCC2)cc1)c1c(-c2ccc(O)cc2)sc2ccccc12
139 to 143	COc1ccc2c(c1)CCC1C2=CCC2(C)C(=O)CCC12 (centres undefined)
32 to 33	CCOC(=O)CCCCOc1cccc(O)c1C=O
150 to 151	O=C(O)C(=O)CC(=O)c1cccn1Cc1ccccc1
202 to 203	Cn1ccc(OC2c3cc(C#N)ccc3OC(C)(C)C2O)cc1=O (centres undefined)
58 to 59	COc1cccc(-c2ccc3ccc(OC)cc3c2)c1
219	COc1ccc2c(c1)c(Cc1nc(-c3ccc([N+](=O)[O-])cc3)cs1)c(C)n2C(=O)c1ccc(Cl)cc1
66 to 68	COc1ccccc1/C(=C/C=C/C(=O)NCCCCc1cccnc1)c1ccccc1
164 to 166	C=C(c1cc(F)ccc1O)n1ccnc1
183 to 186	CC(C)(C)c1cc(C(C)(C)C)c2op(Cl)oc3c(C(C)(C)C)cc(C(C)(C)C)cc3c2c1
148 to 149	COc1ccc([N+](=O)[O-])c(-c2cc(OC)ccc2[N+](=O)[O-])c1
195 to 197	O=Cc1cc(-c2ccc3nnn(Cc4ccc5ncccc5c4)c3n2)cs1

SMILES	melting point [°C]
COc1cc2c(cc1OC)C(c1cccc([N+](=O)[O-])c1)=NN=C(C)C2	196 to 198
COC(=O)c1nn(Cc2ccccc2)c2ccccc12	72 to 73
CCCCCC[C@@H](CC(N)=O)N(CCC)C(=O)[C@H](CCCC(=O)O)NC(=O)c1cn(Cc2ccccc2)c2ccccc12	147 to 157
COc1ccc2c(CCNCC#N)c[nH]c2c1	80
